Measured values published in article PMC3947011 (ACS chemical biology, 2013).
Where two headings read alike, the source gives them in different places.

How the values were obtained:
Type in all cases: cell-based
[1] = system: P. aeruginosa (ATCC 27853)
[2] = system: K. pneumoniae (ATCC 13383)
[3] = system: Vancomycin-resistant E. faecalis (ATCC 700802)
E. coli (ATCC 25922) = system: E. coli (ATCC 25922)
[4] = system: Methicillin-resistant S. aureus (ATCC 33591)
[5] = system: Methicillin-resistant S. epidermidis (RP62A)

Pexiganan
MIC P. aeruginosa ([1]; 24 h): 16 µg/mL | MIC P. aeruginosa ([1]; value in parentheses): 6 µM | MIC K. pneumoniae ([2]; 24 h): 8 µg/mL | MIC K. pneumoniae ([2]; value in parentheses): 3 µM | MIC E. faecalis ([3]; 24 h): 32 µg/mL | MIC E. faecalis ([3]; value in parentheses): 12 µM | MIC E. coli (E. coli (ATCC 25922); complete growth inhibition after 24 h, highest tested 25 μg/mL): 8 µg/mL | MIC E. coli (E. coli (ATCC 25922); value in parentheses): 3 µM | MIC S. aureus ([4]; 24 h): 16 µg/mL | MIC S. aureus ([4]; value in parentheses): 6 µM | MIC S. epidermidis ([5]; 24 h): 8 µg/mL | MIC S. epidermidis ([5]; value in parentheses): 3 µM
